Read-outs that look alike come from different tables or passages of the source.
How the values were obtained:
IMR90 cells = test: Dose-response curves on proliferating and replicative senescent IMR90 (Trypan blue cell count); format: cell-based; conditions: for EC50: Homo sapiens, IMR-90
Source text: (§1) IMR90 and WI38 lung fibroblasts were purchased from ECACC‐Merck. Human bone marrow (BM)‐derived mesenchymal stromal cells (MSCs) were purchased from Lonza. Human umbilical vein endothelial cells (HUVECs) are primary cells obtained from a pool of donors purchased from Clonetics (Lonza). Murine ear fibroblasts (MearFs) were obtained from C57BL/6J mice maintained in the INRCA “Specific Pathogen Free” (SPF) animal facility. MCF7 breast cancer cells were purchased from ATCC. For dose–response curves, IMR90 and WI38 were induced to senescence through replicative passages; MSCs, HUVECs, and MearFs senescence was induced with Doxorubicin; MCF7 senescence was induced with 4‐Hydroxytamoxifen (Lee et al. [2014]). The EC50 was calculated using GraphPad Prism 10 software. All treatment specifications are reported in the extended section.
Cell culture and treatment. IMR90 cells (Homo sapiens, fetal lung, fibroblast) and WI38 cells (Homo sapiens, fetal lung, fibroblast) were purchased from ECACC-Merck (Merck, Darmstadt, Germany) and cultured in MEM medium (Euroclone, Milano, Italy) supplemented with 1% L-Glutamine (Euroclone, Milano, Italy), 1% Penicillin-Streptomycin (Euroclone, Milano, Italy), and 10% Fetal Bovine Serum (FBS, Euroclone, Milano, Italy), at 37°C, 5% CO2. IMR90 cells with a population doubling (PD) from PD15 to PD23 were used; cells were considered incrementally senescent from passage PD19 to passage PD23. WI38 cells were used from PD26 to PD53. Cells were considered incrementally senescent from passage PD49 to passage PD53. For the compounds in vitro screening, IMR90 cells with passages from PD15 to PD23 were tested at increasing concentrations of 0.5 μM, 1 μM, 10 μM, and 25 μM over 24 and 48 h to evaluate the compounds' efficacy and cytotoxicity compared to the Vehicle (DMSO ≤ 0.1%). Cells were counted manually, in triplicate, using Trypan blue reagent (Euroclone) and disposable Bürker chambers. […] K5 dose-response proliferation curves were performed with compound K5 (Molport, SIA, Riga, Latvia) in concentrations 0.1, 0.5, 1, 5, 10, 50, 100, and 200 μM for 48 h. Cells were counted using a Trypan blue reagent and EVAplus cell counter. The EC50s were calculated by analyzing the data using GraphPad Prism 10 software.
MCF7 cell line (ATCC; HTB-22, Homo sapiens, breast cancer) was purchased from ATCC; cells were grown in MEM medium (Corning, New York, USA, #15-010-CVR) supplemented with 10% FBS (Gibco, Invitrogen, Carlsbad, CA, USA, #10270106), 1% glutamine (Corning #25005-CI), 1% penicillin and streptomycin (Corning #30002-CI). Cells were incubated at 37 °C with 5% CO2. Senescent status induction: MCF7 were plated 24 h before the treatment with 4-Hydroxytamoxifen (TAM) 10 μM to induce the senescence described by (Lee et al. 2014). Control cultures were treated with equal volumes of 75% ethanol as the vehicle. The treatment with TAM lasts 96 h, after which the cells have been washed and treated with the senolytic drugs K5 10 µM for another 96 h. The treatment with the senolytic compounds has been renewed at 48 h. Cell mortality and vitality curves after treatment with K5 (10 μM, orange) or Vehicle (DMSO, grey) were monitored using the Incucyte live-cell Analysis system (Sartorius, Goettingen, Germany). The estimated Senolytic index (SI) was calculated as the ratio between the EC50 in proliferating cells and the EC50 in senescent cells, extrapolated using GraphPad Prism 10 software.

HUVEC = test: MTT viability of Doxorubicin-induced senescent and non-senescent HUVEC; format: cell-based, Human; conditions: for EC50: Homo sapiens
Source text: as §1
Cell viability was determined using an MTT assay. Absorbance was measured using a NB‐12‐0035 Microplate Reader (NeoBiotech Co.). Data are expressed as a percentage of viability compared with untreated cells.
Human umbilical vein endothelial cells (HUVECs) are primary cells obtained from a pool of donors purchased from Clonetics (Lonza, Stein, Switzerland). HUVECs were cultured in endothelial basal medium (EBM-2, CC-3156, Lonza) supplemented with SingleQuot Bullet Kit (CC-4176, Lonza) containing 0.1% human recombinant epidermal growth factor (rh-EGF), 0.04% hydrocortisone, 0.1% vascular endothelial growth factor (VEGF), 0.4% human recombinant fibroblast growth factor (rh-FGF-B), 0.1% insulin-like growth factor-1 with the substitution of arginine for glutamic acid at position 3 (R3-IGF-1), 0.1% ascorbic acid, 0.1% heparin, 0.1% gentamicin and amphotericin-B (GA-1000), and 2% fetal bovine serum (FBS). The cells were seeded at a density of 5000/cm^2 in T75 flasks (Corning Costar, Sigma Aldrich, St. Louis, MO, USA).
Murine ear fibroblasts (MearFs) were obtained from C57BL/6J mice maintained in the INRCA "Specific Pathogen Free" (SPF) animal facility. The ear biopsies (2 mm radius) were obtained with a dedicated puncher, and cells recovered as previously described (Malavolta et al. 2022). Cells were seeded at a density of 5000/cm^2 in T75 flasks (Corning Costar, Sigma Aldrich, St. Louis, MO, USA) and maintained at 37°C in a 95% humidified incubator with 5% CO2. […]
Cell viability assay. Cell viability has been determined with MTT (3-(4,5-dimethylthiazol-2-yl)-2, 5-diphenyltetrazolium bromide) assay. […] Insoluble formazan salts produced were solubilized with DMSO incubation, and then absorbance was measured at 540 nm using a microplate reader (NB-12-0035 Microplate Reader, NeoBiotech Co., Seoul, Republic of Korea). Data are expressed as a percentage of viability compared with untreated cells (the control group has been considered 100% of viability).

Cc1ccccc1-n1c(=O)n(Cc2ccccc2)c(=O)c2[nH]cnc21 [Compound K5, 1-benzyl-3-(2-methylphenyl)-7H-purine-2,6-dione]
EC50 (IMR90 cells; IMR90, Replicative/passages, read-out: EC50 senescent cells): 0.38 µM
EC50 (IMR90 cells; IMR90, read-out: EC50 proliferating cells): > 500 µM
Senolytic evidence (no, partly/yes) (IMR90 cells; IMR90, Replicative/passages): Yes
Senolytic index (estimated) (IMR90 cells; IMR90, SI = EC50 in proliferating cells/EC50 senescent cells): > 1320
toxicity in proliferating cells (IMR90 cells; proliferating IMR90 (PD15), 100 nM to 200 μM, 48 h): no evident toxicity
Senolytic evidence (no, partly/yes) (HUVEC; DNA damage (Doxorubicin)): No
EC50 (HUVEC; DNA damage (Doxorubicin), MTT, read-out: EC50 senescent cells): > 500 µM
EC50 (HUVEC; MTT, read-out: EC50 proliferating cells): > 500 µM
difference in vitality, DOXO-induced senescent vs non-senescent proliferating cells (HUVEC; MTT): no discernible difference
